Measured values reported in publication PMC11001709, “Anti-toxoplasma activity and DNA-binding of copper(II) and zinc(II) coordination compounds with 5-nitroimidazole-based ligands” (Journal of Biological Inorganic Chemistry, 2023).
Converted amounts (≈) assume the structure as drawn.

How the values were obtained:
[1] = Distribution coefficient LogD7.4, shake-flask 1-octanol/MOPS buffer; format: physicochemical; settings: 25 °C
Protocol: Solutions between 100 and 10 µM of the free ligands (cenz and onz) and the coordination compounds 3–10 were prepared in a MOPS buffer pH 7.4 as the aqueous phase and in 1-octanol as the organic phase. The absorption at 320 nm and 310 nm was determined for the aqueous and organic phase respectively by electronic spectroscopy (UV–Vis). Through a linear regression (concentration vs. absorption) the molar extinction coefficient of each compound in both phases was determined (Table 3). The lipophilicity was calculated in the 1-octanol/water system from the shake flask method using Eq. 1 [39]:1 […] where, Co is the final concentration in the organic phase and Cw is the final concentration in the aqueous phase (MOPS buffer at 10^–2 M pH 7.4). Both phases were presaturated with 50 µM solutions of the free ligands or 500 µM of each coordination compound and their UV spectrum was recorded. Both phases were combined and kept stirring for 3 h at 25 °C and in the absence of light. Subsequently, the mixture was centrifuged at 400g and the concentration in both phases was determined by UV–Vis spectroscopy using the Beer-Lambert law. The assays were performed in triplicate.
The T gondii parasite is an apicomplex organism; it requires a host cell to live, so it is important that the drugs used against the parasite have easy access to the cell. The lipophilicity of a compound is an important physicochemical property to determine its ability to permeate the biological membrane through passive diffusion; which usually is measured from the distribution coefficient logD7.4 = log(Co/Cw), in n-octanol/water. The shake-flask method was used to determine the LogD7.4 values from the molar extinction coefficients of the coordination compounds and the ligands in the two solvents (Table 3).

[2] = test system: ct-DNA; assay: Circular dichroism of ct-DNA; format: binding, calf; settings: [DNA]b = 50 µM, [complex]/[DNA] 0-2, 1 h 37 °C
Protocol: (§1) For the UV–Vis, fluorescence and circular dichroism assays the concentration of ct-DNA was determined on a Varian Cary 100 Scan spectrophotometer from the absorption at 260 nm and the corresponding molar absorptivity of 6600 M^−1 cm^−1 (nucleobase concentration). The stock solutions of the coordination compounds and the free ligands were prepared in cacodylate/NaCl buffer (1 mM cacodylic acid and 20 mM sodium chloride) at pH 7.25. The final samples contained a DMSO concentration of 0.2%.
Circular dichroism (CD) spectra were recorded using a JASCO-815 spectropolarimeter, equipped with xenon-arc lamp of 450 W. The sample compartment was air-purged with N2 before use. For the measurements, a quartz cuvette with an optical path of 5 mm was used. A solution of 25 µM (in base pairs) of ct-DNA in cacodylate/NaCl buffer was incubated for 1 h at 37 °C with increasing amounts of coordination compounds (0–50 µM). The CD spectra were recorded at room temperature.
The interaction of small molecules with DNA can modify these CD signals depending on the type of binding. Intercalative interactions increase the intensity of the signals, as the result of an increase of the stability of the B conformation, whereas groove binding or covalent interactions tend to decrease the intensity of these signals, which are moreover displaced. The CD spectra for both ligands and their copper(II) and zinc(II) complexes were obtained at constant concentration of ct-DNA, increasing the complex concentration up to two equivalents ([complex]/[DNA] ratios of 0, 0.2, 0.4, 1, 2) with respect to the nucleobases concentration ([DNA]b = 50 µM).

[3] = test system: RH tachyzoites of Toxoplasma gondii; assay: Viability of extracellular tachyzoites, Sytox Green exclusion test; format: cell-based; settings: 1 h
Protocol: RH tachyzoites of Toxoplasma gondii were extracted in PBS solution at pH 7.4 from intraperitoneal fluid of infected CD1 mice on the third day of infection and centrifuged for ten minutes at 260g. Purified parasites were used within 4 h after their isolation.
The viability of the parasites was determined from staining with Sytox Green® fluorescent dye exclusion test. Purified tachyzoites (1 × 10^6) were incubated for one hour at room temperature with PBS solutions of the coordination compounds or the free ligands at concentrations of 40, 20, 10, 5, and 2.5 µM (0.1% DMSO), in a volume final of 1 mL. After the incubation time, the samples were centrifuged for 10 min at 250g, the medium was removed and 20 µL of Sytox Green® was added after 15 min of incubation for differentiate dead parasites in a Neubauer chamber. The assays were performed in triplicate. The half maximal inhibitory concentration (IC50) was calculated by Boltzmann regression analysis and expressed as mean ± standard error of three replicates. Based on the results the tachyzoites were incubated under the same conditions with the coordination compounds [Cu(onz)2Cl2] and [Cu(onz)2Br2] at their respective IC50 values, Sytox Green® was then added, and they were observed by fluorescence microscopy. Sulfadiazine was used as positive control.
Viability assays were performed against tachyzoites of Toxoplasma gondii. The RH strain was used to evaluate the effect of different concentrations (namely, 2.5, 5, 10, 20 and 40 µM) of the coordination compounds and the free 5-nitroimidazole against the tachyzoites. The evaluation were performed in PBS buffer (pH 7.4) with Sytox Green® exclusion test, which allows differentiating dead from live tachyzoites, since the intact cell membrane of alive ones is not stained.

[4] = test system: Entamoeba histolytica; settings: cited from earlier work
[5] = test system: pBR322 plasmid DNA; assay: Agarose gel electrophoresis, DNA cleavage; format: biochemical
Protocol: Electrophoresis assays were performed in 1.5% agarose gel and 1× TBE buffer using the DNA plasmid pBR322. The plasmid (15 µM base pairs) was incubated with 10 and 50 μM concentrations of the coordination compounds for 1 h at 37 °C in presence and absence of ascorbic acid (50 μM) as reducing agent and hydrogen peroxide (500 µM) as ROS generator in a final volume of 20 μL. The DNA-cleaving compound [Cu(phen)2(H2O)](NO3)2 was used as reference. The samples were loaded into the gel with 4 μL of a loading buffer (30% glycerol, 5 mM xylene cyanol), and electrophoresis was performed in 1× TBE at 100 V for 1 h in a Bio-Rad horizontal tank. Subsequently, the gel was stained with SYBR™ Safe overnight and images were acquired with a Gel Doc EZ Imager instrument (Bio-Rad).
Distinct forms of pBR322 plasmid DNA are commonly observed by gel electrophoresis due to the conformational changes that present distinct electrophoretic mobility: (1) supercoiled DNA (Form I) that migrates faster on the gel, (2) circular nicked (Form II), obtained from a one-strand scission, has a slower migration through the gel and (3) linear form (Form III) is generated when both strands are cleaved and migrates between forms I and II [54]. The interaction of the free ligands and their copper(II) and zinc(II) coordination compounds with pBR322 was investigated in presence of H2Asc (50 μM) as reducing agent and H2O2 (500 μM) as ROS generator. Solutions of 10 and 50 µM of the coordination compounds were incubated with the DNA at 37 °C for 1 h.

[6] = test system: Euryhaliotrema perezponcei; set-up: method as in doi:10.1016/j.poly.2013.09.030, PMID 28917638; settings: in vitro and in vivo assays; cited from earlier work
[7] = intraperitoneal injection; cited from earlier work
[8] = test system: ct-DNA; assay: Competitive displacement of ethidium bromide from DNA (fluorescence); format: binding, calf; settings: EB 75 µM, [DNA]b = 30 µM, compound 0-50 µM, 1 h
Protocol: as §1
(§2) Emission intensity of the dyes DNA-intercalator ethidium bromide, EB (λexc = 514 nm) and the minor-groove binder Hoechst 33,258 (λexc = 350 nm) was measured on iHR320 HORIBA JOBIN YVON spectrofluorometer. The samples contained 15 µM (in base pairs) of ct-DNA and 75 µM of EB […] in cacodylate/NaCl buffer. The respective dye was incubated for 30 min with ct-DNA to allow its binding to the biomolecule. Subsequently, increasing amounts of coordination compounds (0–50 µM) were added up to a final volume of 2 mL, and the samples were incubated for 1 h at 37 °C. The fluorescence spectra of all samples were recorded at room temperature. The affinity of the compounds for ct-DNA compared to EB was evaluated through the Stern–Volmer quenching constant Ksv, from Eq. 3:3 I0/I=1+Ksvcompound where I0 and I are the emission intensities in absence and the presence of the compound, respectively.
With the aim to corroborate the binding mode of the coordination compounds with DNA competitive displacement assays were carried out by florescence spectroscopy. The fluorescence of ethidium bromide (EB) increases when it intercalates between DNA base pairs, forming an EB-DNA adduct. Competitive binding assays will lead to a decrease of the fluorescence intensity (λexc = 514 nm; λem = 610 nm) if the interacting molecule is capable of displacing EB from the DNA helix. Solutions containing constant concentrations of DNA (30 µM) and EB (75 µM) were incubated for 30 min. Then the coordination compounds to be tested were added in a concentration in the range of 0–50 µM (corresponding to [complex]/[DNA] ratios between = 0 and 3.3), and fluorescence spectra were recorded after 1 h of incubation.

[9] = test system: ct-DNA; assay: Competitive displacement of Hoechst 33258 from DNA (fluorescence); format: binding, calf; settings: Hoechst 33258 1.9 µM, [DNA]b = 30 µM, compound 0-50 µM, 1 h
Protocol: as §1, §2
Competitive binding assays were carried out with Hoechst 33,258. This dye binds to B-DNA, especially those with an AT-rich sequence giving a fluorescent signal at 458 nm when excited at 350 nm. As for to the EB assays, DNA (30 µM) was incubated for 30 min with Hoechst 33,258 (1.9 µM) and increasing amounts of the coordination compounds were subsequently added. In all cases, fluorescence quenching was observed (Fig. 9). As previously, the Ksv constants were determined (Fig. 9c and Table 4). The copper(II) compounds show Ksv values in the […] range (Table 4), indicating a groove binding behavior. For the zinc(II) compounds, the Ksv values are two orders of magnitude lower indicating weaker interactions, must likely of electrostatic nature.

[10] = compound 50 (mM in the source), + H2Asc
[11] = compound 50 (mM in the source), + H2Asc + H2O2
[12] = compound 50 (mM in the source), + H2O2
[13] = compound 50 (mM in the source), no additive
[14] = compound 10 (mM in the source), + H2Asc
[15] = compound 10 (mM in the source), + H2O2
[16] = compound 10 (mM in the source), no additive

Compound | effect on CD spectrum of ct-DNA (bands at 275 and 245 nm) [2] | %Damage [5, 10] | %Nicked [5, 10] | %Supercoiled [5, 10] | %Damage [5, 11] | %Damage [5, 12] | %Nicked [5, 12] | %Supercoiled [5, 12] | %Damage [5, 13] | %Nicked [5, 13] | %Supercoiled [5, 13] | other results
Cc1ncc([N+](=O)[O-])n1CC(O)CCl (centres unmarked) [onz, 1-(3-chloro-2-hydroxypropyl)-2-methyl-5-nitroimidazole, reference compound] | did not affect the DNA structure | 11.80% | 5.60% | 88.20% | 8.80% | 10.70% | 8.90% | 89.30% | 9.80% | 7.60% | 90.20% | logD at 3 h ([1]; 1-octanol/MOPS buffer, pH 7.4, octanol/water (MOPS buffer 10^–2 M)): 0.64; activity against T. gondii ([3]; 2.5-40 µM, PBS): did not show activity; MIC [4]: 12.5 µM (≈ 2.75 µg/mL); %Nicked [5, 11]: 4.30%; %Supercoiled [5, 11]: 91.20%; DNA cleavage (in words) ([5]; with and without H2Asc / H2O2): did not provoke any significant DNA cleavage
CCS(=O)(=O)CCn1c([N+](=O)[O-])cnc1C.CCS(=O)(=O)CCn1c([N+](=O)[O-])cnc1C.[Br][Cu][Br] [[Cu(tnz)2Br2]] |  |  |  |  |  |  |  |  |  |  |  | parasite mortality percentage [6]: 100%
Nc1ccc(S(=O)(=O)Nc2ncccn2)cc1 [sulfadiazine, reference compound] |  |  |  |  |  |  |  |  |  |  |  | LD50 [7]: 180 mg/kg; IC50 ([3]; Toxoplasma gondii, PBS pH 7.4, mean ± standard error of three replicates, read-out: IC50): > 1600 µM
Cc1n(CC(O)CCl)c([N+](=O)[O-])c[n+]1[Zn-2]([Br])([Br])[n+]1cc([N+](=O)[O-])n(CC(O)CCl)c1C (centres unmarked) [[Zn(onz)2Br2]] | spectra changes are minor | 98.2% | 98.80% | 1.80% | 100.00% | 44.80% | 29.10% | 55.20% | 11.9% | 0.40% | 88.10% | LogD7.4 ([1]; octanol/water (MOPS buffer 10^–2 M), 3 h): 0.95; Ethidium bromide Ksv [8]: 2600 M⁻¹; %Damage [5, 14]: 87.3%; %Nicked [5, 14]: 81.80%; %Supercoiled [5, 14]: 12.70%; %Damage ([5]; compound 10 (mM in the source), + H2Asc + H2O2): 100.00%; %Damage [5, 15]: 14.30%; %Nicked [5, 15]: 4.70%; %Supercoiled [5, 15]: 85.70%; %Damage [5, 16]: 3.5%; %Nicked [5, 16]: 2.60%; %Supercoiled [5, 16]: 96.50%; Hoechst 33258 Ksv [9]: 48000 M⁻¹
